Results taken from patent US20190134039A1, “ANTIVIRAL JAK INHIBITORS USEFUL IN TREATING OR PREVENTING RETROVIRAL AND OTHER VIRAL INFECTIONS” (EMORY UNIVERSITY, priority 2011, published 2019).

Columns and labels:
HIV-1LAI = assay: microbe, parasite or virus in culture; settings: Human immunodeficiency virus 1, PBMC, in Homo sapiens
Source text: PBM cells were isolated as follows: Lymphocytes were isolated from buffy coats derived from healthy donors obtained from Life South Laboratories (Dunwoody, Ga.). Activated lymphocytes were maintained for 72 hrs in medium that was supplemented with […] phytohemagglutinin (PHA) (Cape Cod associates, East Falmouth, Mass.). Media was comprised of RPMI media supplemented with 20% fetal calf serum, 1% penicillin/streptomyocin and 2% L-glutamine (Sigma Aldrich, San Jose, Calif.).
PBM cell infections: Testing was performed in duplicate with at least 3 independent assays. Cells were incubated in RPMI medium (HyClone, Logan, Utah) containing HR-IL2 (26.5 units/ml) and 20% fetal calf serum. Infections were performed by adding HIV-1LA1 followed by a further incubation at 37° C., 5% CO2, 1 hr prior to addition of drugs. Assays were performed in 24 well plates (BD Biosciences, Franklin Lakes, N.J.). One ml of supernatant was collected after 5 days in culture and then centrifuged at 12,000 rpm for 2 hr at 4° C. in a Jouan Br43i (Thermo Electron Corp., Marietta, Ohio). The product of the RT assay was quantified using a Packard harvester and direct beta counter and the data were analyzed as previously described (Schinazi et al, 1990).

HIV-1BaL = assay: microbe, parasite or virus in culture; settings: Human immunodeficiency virus 1, Macrophage, in Homo sapiens
Method: Macrophages were isolated as follows: Monocytes were isolated from buffy coats of HIV-1 negative, HBV/HCV-negative donors with density gradient centrifugation coupled with enrichment for CD14+ monocytes with Rosette Sep antibody cocktail (Stem Cell Technologies, Vancouver, British Columbia). Cells were seeded at a concentration of 1.0×10^6 cells/well for 1 hr at 37° C. and 5% CO2 to confer plastic adherence prior to repeated washes with 1×PBS. Macrophages were maintained in medium containing 100 U/ml macrophage colony-stimulating factor (m-CSF, R&D Systems, Minneapolis, Minn.), supplemented with 20% fetal calf serum (Atlanta Biologicals, Lawrenceville, Ga.) and 1% penicillin/streptomyocin (Invitrogen, Carlsbad, Calif.) for 7 days (37° C., 5% CO2) prior to testing.
Macrophage infections: Macrophages were cultured as described above for 7 days. […] 4 hrs after infection, virus was removed and drug-containing medium was returned to the cultures. Supernatants were collected on day 7 post-infection and HIV-1 p24 was quantified via ELISA (Zeptometrix Corporation, Buffalo, N.Y.). EC50 analysis was performed using CalcuSyn software (BioSoft Corporation, Cambridge, UK).

PHA + IL-2 PBM cells = assay: cells; settings: Homo sapiens, PBMC, read-out: IC50 in PHA + IL-2 PBM cells *MTT Assay
PHA stimulated PBM cells = assay: cells; settings: Homo sapiens, PBMC, read-out: IC50 in PHA stimulated PBM cells *MTT Assay
Mφ = assay: cells; settings: Homo sapiens, read-out: IC50 in Mφ *MTT Assay
CEM cells = assay: cells; settings: Homo sapiens, CCRF-CEM, read-out: IC50 in CEM cells *MTT Assay
wild-type HIV-1xxLAI = assay: Antiviral potency in primary human lymphocytes, wild type; assay type: cell-based; settings: Human immunodeficiency virus 1, Lymphocyte, xxLAI, primary human lymphocytes
HIV-1 containing M184V = assay: microbe, parasite or virus in culture; assay type: cell-based
HIV-1 containing K65R = assay: microbe, parasite or virus in culture; assay type: cell-based
[1] = test system: HIV-1 containing A62V/V75I/F77L/F116Y/Q151M; assay: microbe, parasite or virus in culture; assay type: cell-based
[2] = test system: HIV-1 containing 4xAZT (D67N/K70R/T215Y/K219Q); assay: microbe, parasite or virus in culture; assay type: cell-based
latent HIV-1 [3] = assay: Reactivation of latent HIV-1 in primary human macrophages (PMA, p24 ELISA); assay type: cell-based; settings: drug applied during reactivation, removed thereafter, within 72 hr post reactivation
latent HIV-1 [4] = assay: Reactivation of latent HIV-1, primary central memory-based T cell latency model; settings: concentrations found during steady-state or Cmax in vivo
activated PBM cells = assay type: cell-based, human
Source text: The data is shown in FIG. 2, in terms of total cell number (10^6 cells) versus aM drug in medium.
The data is shown in FIG. 3, in terms of cell viability (%) versus aM drug in medium.

[5] = test system: PHA stimulated primary human lymphocytes; assay: Proliferation and viability of PHA stimulated primary human lymphocytes; assay type: cell-based; settings: 5 days, all concentrations
Method: (§1) The effect of various Jak inhibitors on proliferation and viability of PHA or PHA+IL-2 stimulated primary human lymphocytes was evaluated using the techniques described above.
(§2) For all experiments, cells were incubated with media alone or drug-containing medium for 5 days prior to assessment of cell count and viability. Data are mean and standard deviations for at least three independent experiments conducted with at least 4 pooled donors, and duplicates within each experiment.

[6] = test system: PHA+IL-2 stimulated primary human lymphocytes; assay: Proliferation and viability of PHA+IL-2 stimulated primary human lymphocytes; assay type: cell-based; settings: PHA+IL-2 stimulated lymphocytes, 5 days
Method: as §1, §2

pSTAT1 = assay: cells
HIV-2 = assay: microbe, parasite or virus in culture; settings: Human immunodeficiency virus 2, PBMC
[7] = Human immunodeficiency virus 1, Lymphocyte

`N#CC[C@H](C1CCCC1)n1cc(-c2ncnc3[nH]ccc23)cn1` [Jakafi, Ruxolitinib] showed an EC50 (HIV-1LAI; read-out: Anti-HIV-1 EC50 in acutely infected PBM cells) of 100 ± 20 nM, an EC90 (HIV-1LAI; read-out: Anti-HIV-1 EC90 in acutely infected PBM cells) of 4700 ± 70 nM and an EC50 (HIV-1BaL; read-out: Anti-HIV-1 EC50 in acutely infected MΦ) of 300 ± 100 nM. It also gave an EC90 (HIV-1BaL; read-out: Anti-HIV-1 EC90 in acutely infected MΦ) of 3100 ± 1800 nM, a CC50 (PHA + IL-2 PBM cells) of 3100 ± 1700 nM and an IC50 (PHA stimulated PBM cells) of 9100 ± 1300 nM. The IC50 (Mφ) was over 100000 nM, the IC50 (CEM cells) was 11800 ± 1100 nM and the EC50 (wild-type HIV-1xxLAI; read-out: EC50) was 300 ± 300 nM. The EC90 (wild-type HIV-1xxLAI; read-out: EC90) was 6100 ± 7600 nM, the EC90 (HIV-1 containing M184V; [7]) was 3200 ± 2300 nM and the “FI50 (ratio of EC50 against mutant virus:EC50 against wild-type xxLAI)” value (HIV-1 containing M184V; M184V) was 1.3. For the same molecule, the “FI90 (ratio of EC90 against mutant virus:EC90 against wild-type xxLAI)” value (HIV-1 containing M184V; M184V) was 0.5, the EC50 (HIV-1 containing K65R; [7]) was 200 ± 300 nM and the EC90 (HIV-1 containing K65R; [7]) was 8500 ± 8100 nM. For the same molecule, the “FI50 (ratio of EC50 against mutant virus:EC50 against wild-type xxLAI)” value (HIV-1 containing K65R; K65R) was 0.8, the “FI90 (ratio of EC90 against mutant virus:EC90 against wild-type xxLAI)” value (HIV-1 containing K65R; K65R) was 1.4 and the “FI50 (ratio of EC50 against mutant virus:EC50 against wild-type xxLAI)” value ([1]; A62V/V75I/F77L/F116Y/Q151M) was 0.1. For the same molecule, the “FI90 (ratio of EC90 against mutant virus:EC90 against wild-type xxLAI)” value ([1]; A62V/V75I/F77L/F116Y/Q151M) was 0.3, the EC50 [1, 7] was 30 ± 20 nM and the EC90 [1, 7] was 1500 ± 1500 nM. For the same molecule, the “FI50 (ratio of EC50 against mutant virus:EC50 against wild-type xxLAI)” value ([2]; 4xAZT (D67N/K70R/T215Y/K219Q)) was 0.3, the “FI90 (ratio of EC90 against mutant virus:EC90 against wild-type xxLAI)” value ([2]; 4xAZT (D67N/K70R/T215Y/K219Q)) was 0.4 and the EC50 [2, 7] was 90 ± 100 nM. The EC90 [2, 7] was 2400 ± 2000 nM, the “percent inhibition of reactivation of latent HIV-1 versus no drug control” value (latent HIV-1 [3]) was about 35% and the “inhibition of reactivation of latent HIV-1” value (latent HIV-1 [4]) was at least 50%. The “total cell proliferation (total cell number)” value (activated PBM cells) was “do not affect total cell proliferation”, the total cell viability (activated PBM cells) was “do not affect total cell viability” and the “proliferation versus cells exposed to media alone” value [5] was “not significantly different”. For the same molecule, the “viability versus cells exposed to media alone” value [5] was “not significantly different”, the “proliferation versus cells exposed to media alone” value ([6]; 1.0 μM) was “significantly inhibited” and the “viability versus cells exposed to media alone” value ([6]; all concentrations) was “not significantly different”. For the same molecule, the EC50 (pSTAT1; read-out: EC50 pSTAT1) was under 10 nM, the EC90 (pSTAT1; read-out: EC90 pSTAT1) was under 10 nM and the EC50 (HIV-2; read-out: Anti-HIV-2 EC50 in acutely infected PBM cells) was 20 ± 10 nM. The EC90 (HIV-2; read-out: Anti-HIV-2 EC90 in acutely infected PBM cells) was 400 ± 200 nM.
